Legend:
[1] = biological target: T1, Transmembrane prolyl 4-hydroxylase (Homo sapiens, UniProt Q9NXG6); test: Compound was tested for inhibition of the enzyme human proline-4-hydroxylase; No inhibition
T1 sequence (Q9NXG6 whole entry): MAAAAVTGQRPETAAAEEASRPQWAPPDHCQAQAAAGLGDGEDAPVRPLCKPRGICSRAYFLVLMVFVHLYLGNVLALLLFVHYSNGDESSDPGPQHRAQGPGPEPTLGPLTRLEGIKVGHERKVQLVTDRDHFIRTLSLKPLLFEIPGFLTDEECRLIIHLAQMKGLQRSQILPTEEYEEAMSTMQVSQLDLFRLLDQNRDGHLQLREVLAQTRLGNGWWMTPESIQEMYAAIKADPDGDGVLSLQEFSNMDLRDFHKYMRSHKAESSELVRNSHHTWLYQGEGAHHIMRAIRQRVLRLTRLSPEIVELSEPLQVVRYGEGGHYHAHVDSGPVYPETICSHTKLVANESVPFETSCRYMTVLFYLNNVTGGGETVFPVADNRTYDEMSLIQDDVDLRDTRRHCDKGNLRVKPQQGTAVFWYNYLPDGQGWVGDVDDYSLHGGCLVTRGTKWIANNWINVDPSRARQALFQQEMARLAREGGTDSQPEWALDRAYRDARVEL

[2] = biological target: T2, Transmembrane prolyl 4-hydroxylase (Homo sapiens) (UniProt Q9NXG6); test: Compound was tested for substrate specificity of human proline-4-hydroxylase; Not a substrate
T2 sequence (whole entry): T1 sequence (Q9NXG6 whole entry)

[3] = biological target: T2, Transmembrane prolyl 4-hydroxylase (Homo sapiens); test: Compound was tested for substrate specificity of human proline-4-hydroxylase; Substrate

Row | Compound | IC50 [1] | Activity [2] | Activity [3]
1 | CCOC(=O)CNC(=O)[C@@H]1C(Cl)CCN1C(=O)[C@H](Cc1ccccc1)NC(=O)CNC(=O)OCc1ccccc1 (stereo partly specified) | Not Active | Not a substrate | –
2 | CCOC(=O)CNC(=O)[C@@H]1C(F)CCN1C(=O)[C@H](Cc1ccccc1)NC(=O)CNC(=O)OCc1ccccc1 (stereo partly specified) | – | – | Substrate
3 | CCOC(=O)CNC(=O)[C@@H]1CC(C)CN1C(=O)[C@H](Cc1ccccc1)NC(=O)CNC(=O)OCc1ccccc1 (stereo partly specified) | Not Active | Not a substrate | –

The remaining lines, values ahead:

Row | IC50 [1] | Activity [2] | Activity [3] | Compound
4 | Not Active | Not a substrate | – | CCOC(=O)CNC(=O)[C@H]1N(C(=O)[C@H](Cc2ccccc2)NC(=O)CNC(=O)OCc2ccccc2)CCC12CC2
5 | Not Active | Not a substrate | – | CCOC(=O)CNC(=O)[C@@H]1C(C)CCN1C(=O)[C@H](Cc1ccccc1)NC(=O)CNC(=O)OCc1ccccc1 (stereo partly specified)
6 | Not Active | Not a substrate | – | CCOC(=O)CNC(=O)[C@@H]1C(Br)CCN1C(=O)[C@H](Cc1ccccc1)NC(=O)CNC(=O)OCc1ccccc1 (stereo partly specified)

Reference: ChEMBL document CHEMBL1130984, “Substrate specificity of human prolyl-4-hydroxylase” (Bioorg Med Chem Lett, 1998)
